Data: patent publication US4861774A, “Method of treating tumors using tetracyclo compounds” (priority 1984, dated 1989)
Values after ≈ are worked out from the molar mass of the structure shown.

What was measured:
[1] = Existence as mixture or single component by NMR spectra or silica gel TLC with chromatoscanner; assay type: physicochemical
EL4 Lymphoma = EL4 Lymphoma in mice (Test 6); assay type: in vivo, mice (BDF1); settings: 10.0 mg/kg i.p., days 1, 5 and 9; median survival time
Description: EL4 Lymphoma (1×10^6 cells), maintained i.p. by serial passage in female C57BL/6 mice, was implanted i.p. to female BDF1 mice on day 0, and the test compounds or vehicle were given i.p. to the mice once a day on days 1, 5 and 9.
(§1) Ten mice were used for each test group and twenty mice were used for each vehicle-treated control group.
(§2) Drug efficacy against the ascitic tumors is expressed as percentage of the median survival time of the test group to that of the control group. [formula]

MM46 Mammary carcinoma = MM46 Mammary carcinoma in mice (Test 6); assay type: in vivo, mice (C3 H/HeN); settings: 3.2 mg/kg i.p., days 1, 5 and 9; median survival time
Description: MM46 Mammary carcinoma (1×10^6 cells), maintained i.p. by serial passage in female C3 H/HeN mice, was implanted i.p. to female C3 H/HeN mice on day 0, and the test compounds or vehicle were given i.p. to the mice once a day on days 1, 5 and 9.
as §1, §2

[2] = system: Bacillus subtilis ATCC 6633; assay: Antimicrobial activity, serial broth dilution (Test 2), Bacillus subtilis; assay type: cell-based; settings: ATCC6633, overnight incubation at 37° C.
Experimental: (§3) Antimicrobial activity of the FR-900482 substance against some bacteria was determined by a serial broth dilution method in bouillon media for bacteria. Minimum inhibitory concentrations (MIC) were expressed in terms of μg/ml after overnight incubation at 37° C.

L1210 Leukemia = L1210 Leukemia ascitic tumor in mice (Test 5); assay type: in vivo, mice (BDF1 or CDF1); settings: 10.0 mg/kg i.p., days 1-9, BDF1 mice
Description: L1210 Leukemia (1×10^5 cells), maintained i.p. by serial passage in female DBA/2 mice, was implanted i.p. to female BDF1 or CDF1 mice on day 0, and the test compounds or vehicle were given i.p. to the mice once a day on days 1-9.
(§4) Ten mice were used for each test group, and twenty mice were used for each vehicle-treated control group.
(§5) Drug efficacy against the ascitic tumors is expressed as percentage of the median (mean) survival time of the test group to that of the control group. [formula] .circle.2 Results

[3] = system: Lymphocytic leukemia P388; assay: Antitumor activity against lymphocytic leukemia P388 in mice (Test 1); assay type: in vivo, mice (BDF1); settings: for T/C: mean survival time treated/control
Experimental: The antitumor activity of FR-900482 substance was determined in experimental tumor system in mice.
Lymphocytic leukemia P388 was implanted intraperitoneally into BDF1 mice at an inoculum size of 1×10^6 cells per mouse. Twenty-four hours after the implantation of tumor cells, graded doses of the FR-900482 substance were administered to mice intraperitoneally. Treatments were once a day on day 1, 2, 3 and 4 after the tumor inoculation. Control animals received intraperitoneal doses of physiological saline solution. The injection volume was 0.2 ml in all experiments. Six mice were used for each experimental group.
Antitumor activity was evaluated by the mean survival time of a group of mice and also expressed by the T/C % value (mean survival time of treated group/mean survival time of control group, ×100).

Ehrlich carcinoma = Ehrlich carcinoma in mice (Test 6); assay type: in vivo, mice (ICR); settings: 3.2 mg/kg i.p., days 1, 5 and 9; median survival time
Description: Ehrlich carcinoma (1×10^6 cells), maintained i.p. by serial passage in female ICR mice, implanted i.p. to female ICR mice on day 0, and the test compounds or vehicle were given i.p. to the mice once a day on days 1, 5 and 9.
as §1, §2

AH130 Hepatoma = assay: in vivo rat ascitic tumor model, AH130 Hepatoma (Test 8); parameters: species or system rats (Donryu); settings: 1.0 mg/kg i.p., days 1, 5 and 9; median survival time
Description: AH130 Hepatoma (1×10^6 cells), maintained i.p. by serial passage in female Donryu rats, was implanted i.p. to female Donryu rats on day 0, and the test compounds or vehicle were given i.p. to the rats once a day on days 1, 5 and 9. Ten rats were used for each test group or vehicle-treated control group.
as §2

[4] = system: Pseudomonas aeruginosa NCTC-10490; assay: Antimicrobial activity, serial broth dilution (Test 2), Pseudomonas aeruginosa; assay type: cell-based; settings: NCTC10490, overnight incubation at 37° C.
Experimental: as §3

[5] = Mixture ratios of the two components under various pH values; assay type: physicochemical; settings: pH 1.0, 0.1 N hydrochloric acid
Experimental: The FR-900482 substance was dissolved in various buffer solutions so as to make its concentration to 10 mg/ml. After allowing to stand for 2 hours, 4 μl of each of these solutions was subjected to silica gel thin layer chromatography using a mixture of chloroform and methanol (4:1, v/v) as a developing solvent. After developing, the mixture ratios of the two components were calculated by a chromatoscanner at 254 nm, the results of which are shown in the following.

B16 Melanoma = B16 Melanoma in mice (Test 5); assay type: in vivo, mice (BDF1); settings: 10.0 mg/kg i.p., days 1-9
Experimental: B16 Melanoma (1:10 brei, 0.5 ml), maintained s.c. by serial passage in female C57BL/6 mice, was implanted i.p. to female BDF1 mice on day 0, and the test compounds or vehicle were given i.p. to the mice once a day on days 1-9.
as §4, §5

[6] = system: Escherichia coli NIHJ JC-2; assay: Antimicrobial activity, serial broth dilution (Test 2), Escherichia coli; assay type: cell-based; settings: NIHJJC2, overnight incubation at 37° C.
Experimental: as §3

[7] = system: Human LC-6-JCK lung carcinoma; assay: Human LC-6-JCK lung carcinoma in nude mice (Test 10); assay type: in vivo, human (in BALB/c nu/nu mice); settings: 10.0 mg/kg i.v., days 12, 16 and 20; evaluation day 28
Experimental: Human LC-6-JCK lung or SC-6-JCK stomach (each fragment, 2×2×2 mm), maintained s.c. by serial passage in male BALB/c nu/nu mice, was implanted s.c. to male BALB/c nu/nu mice on day 0, and the test compounds were given i.v. to the mice once a day on days 12, 16 and 20.
Tumor weight was calculated as follows: (Tumor length and width were measured by caliper.)
Tumor weight (mg)=1/2×a×b^2, where a represents length and b represents width (mm).
Tumor weights (initial) and (last) were calculated on the first injection day (just before dosing) and on day 28 (the last evaluation day), respectively.
Five mice were used for each test group and four or five mice were used for each vehicle-treated control.
Drug efficacy was expressed as percentage of mean tumor weight of the test group to that of the control group. [formula]

NC(=O)OCC1c2c(O)cc(C=O)cc2N2CC3NC3C1(O)O2 (stereo not drawn) [FR-900482 substance, 4-Formyl-6,9-dihydroxy-14-oxa-1,11-diazatetracyclo[7.4.1.0^2,7.0^10,12]tetradeca-2,4,6-trien-8-ylmethyl carbamate]
existence as mixture or single component ([1]; around neutral condition): mixture of two components
existence as mixture or single component ([1]; around pH 1 condition): single component
T/C (EL4 Lymphoma): 169%
T/C (MM46 Mammary carcinoma): > 300%
MIC [2]: 50 µg/mL (≈ 156 µM)
T/C (L1210 Leukemia): > 190%
Mean Survival time ([3]; 1.0 mg/kg i.p., days 1-4): 13.0 days
T/C ([3]; 1.0 mg/kg i.p., days 1-4): 118%
Mean Survival time ([3]; 3.2 mg/kg i.p., days 1-4): 14.0 days
T/C ([3]; 3.2 mg/kg i.p., days 1-4): 127%
Mean Survival time ([3]; 5.6 mg/kg i.p., days 1-4): 16.0 days
T/C ([3]; 5.6 mg/kg i.p., days 1-4): 145%
Mean Survival time ([3]; 10 mg/kg i.p., days 1-4): 24.5 days
T/C ([3]; 10 mg/kg i.p., days 1-4): 223%
Mean Survival time ([3]; 18 mg/kg i.p., days 1-4): 29.0 days
T/C ([3]; 18 mg/kg i.p., days 1-4): 264%
increase in life span in mice ([3]; doses between 3.2-18 mg/kg i.p.): significant increase in life span
activity against the leukemia P388 ([3]; i.p., days 1-4): quite active
T/C (Ehrlich carcinoma): > 270%
T/C (AH130 Hepatoma): > 429%
MIC [4]: 25 µg/mL (≈ 77.8 µM)
Ratios of the two components [5]: single component
Solubility (Solubility; acetone): Insoluble
Solubility (Solubility; chloroform): Insoluble
Solubility (Solubility; ethyl acetate): Insoluble
Solubility (Solubility; methanol): Soluble
Solubility (Solubility; water): Soluble
T/C (B16 Melanoma): 350%
MIC [6]: 50 µg/mL (≈ 156 µM)
1-T"/C" [7]: 100%
